Measurements as given in US20230149560A1, “LIPID COMPOSITIONS FOR DELIVERY OF STING AGONIST COMPOUNDS AND USES THEREOF” (priority 2020, published 2023).

Key:
MC38 tumors = experiment: MC38 flank tumor model, single intravenous dose; format: in vivo, mouse; details: for tumor burden: MC38, single iv dose day 7: LND 1 5 nmol CDN, parent CDN 5 or 100 nmol, ADU-S100 100 nmol
Procedure: Specifically, a single intravenous injection of LND 1 prepared as described in Example 3 was compared to intravenous injection of parent CDN for effects on tumor growth in a mouse model of colon adenocarcinoma. Tumors were established in 8-10 week old C57BL/6 mice by inoculating the right flank with a subcutaneous injection of 5x10^5 MC38 cells suspended in PBS. On day 7 post-inoculation, the mice were administered an intravenous injection of either parent CDN or LND-formulated CDN at a dose of 5 nmol CDN. Tumor area was measured on days 7, 10, and 12 and compared to untreated mice that received an intratumoral injection of PBS on day 7. The mice were then sacrificed on day 13, and excised tumors were weighed.
Mice were inoculated with MC38 tumors as described above. On day 7 post tumor inoculation, mice were administered a single intravenous injection of parent CDN at a dose of 5 nmol (n=5) or 100 nmol (n=10), ADU-S100 at a dose of 100 nmol (n=10), or LND 1 at a dose of 5 nmol CDN (n=20). Following administration, tumor growth and animal survival was monitored and compared to untreated mice that received an injection of PBS.
It was further investigated whether intravenous administration of LND-formulated CDN was effective in treating well-established MC38 tumors. Specifically, MC38 tumors were allowed to grow for 10 days post-inoculation (mean size of about 45 mm^2), whereupon a single intravenous dose of LND 1 was administered (5 nmol CDN). Control mice were administered PBS only. […] Though mice administered LND-formulated CDN experience some weight loss (about 10% body weight), they recovered full body weight within about 5 days of administration (data not shown).
Systemic administration of LND or liposome particles comprising CDN-PEG-Lipid was compared in the MC38 tumor model. […] The effect on tumor area and survival was evaluated and compared to untreated mice receiving an injection of PBS alone. Tumor size was measured by area (longest dimension x perpendicular dimension) and the mice were euthanized when the tumor area exceeded 150 mm^2 or tumor ulceration became severe.

4T1-Luc tumor = experiment: Orthotopic 4T1 tumor model, single intravenous dose; format: in vivo, mouse; details: 4T1 orthotopic, single iv day 7: LND 1 10 nmol CDN; parent CDN 200 nmol
Procedure: To evaluate therapeutic efficacy in the aggressive 4T-1 orthotopic tumors, BALB/c mice were inoculated with 5 x 10^5 4T1-Luc tumor cells that were injected into the fourth mammary fat-pad. At 7 days post tumor inoculation, mice were administered CDN formulated as LND 1 at a dose of 10 nmol CDN or parent CDN at a dose of 200 nmol CDN per mouse by intravenous injection. Control mice were administered PBS only.

Compound | tumor burden (MC38 tumors) | tumor area and mass (MC38 tumors; MC38, single iv 5 nmol CDN on day 7, area days 7-12, weight day 13, vs untreated) | tumor growth and survival (4T1-Luc tumor)
Nc1ncnc2c1ncn2[C@@H]1O[C@@H]2COP(O)(=S)O[C@@H]3C(O)[C@@H](COP(O)(=S)O[C@H]2[C@H]1O)O[C@H]3n1cnc2c(N)ncnc21 (stereo partly shown) [ADU-S100, dithio-(Rp, Rp)-[cyclic[A(2′,5′)pA(3′,5′)p]], reference compound] | no reduction of tumor burden | – | –
CCN(CC)CC.Nc1nc2c(ncn2[C@@H]2O[C@@H]3COP(=O)(S)O[C@H]4[C@H]5OC[C@]4(COP(=O)(O)O[C@@H]2[C@@H]3O)O[C@H]5n2cnc3c(N)ncnc32)c(=O)[nH]1 (stereo partly shown) [parent CDN] | no reduction of tumor burden | no effect | no impact on tumor growth or overall survival
